Measurements from US20170304815A1, “Antimicrobial And Biological Active Polymer Composites And Related Methods, Materials and Devices” (IASIS MOLECULAR SCIENCES, priority 2014, published 2017).

What was measured:
[1] = unbound molecule; cited from earlier work
[2] = Thermogravimetric analysis, thermal stability; assay type: physicochemical; settings: simple salt
Protocol: Amberlite IRP69 strong cation-exchange material was stirred in a minimal amount of deionized water and an excess (˜10-500 molar excess) silver nitrate was added and the mixture stirred by the addition of a mechanical stirrer for 60 minutes. […] The modified IRP69 was dried under vacuum at 130° C. and the material was milled with an IKA homogenizer and the resulting particles were put through a sieve with a 35 μm cutoff. The powder was dried under vacuum and used for incorporation within various polymer composite mixtures.
Thermal stability of a benzalkonium salt of IRP69 (IRP69-benzalkonium) was measured and compared to thermal stability of benzalkonium chloride (simple salt). […] (close to the optimal processing temperature polyethylene terephthalate), unexpectedly providing for stable incorporation of the subject biologically active materials within composites useful to create fibers, threads, woven textiles and fabrics incorporating these thermally demanding materials.

Compound: [H]/N=C(\N/C(=N/[H])NCCCCCCNC(=N)NC(=N)Nc1ccc(Cl)cc1)Nc1ccc(Cl)cc1 [Chlorhexidine]
- susceptible to thermal degradation to p-chloroaniline above [1]: above 70 °C

Compound: benzalkonium chloride
- begins to decompose at (thermogravimetric profile) [2]: about 200 °C
